Assay results: a melting point compilation (Tetko et al.)

melting point [°C]	Compound
138 to 140	COC(=O)c1cc2ccccc2c(OC(=O)c2ccccc2C)c1C(=O)OC
45	CC=NO
214	CCN(CC)c1ccc2cc(C(=O)c3cc4ccc(N(CC)CC)cc4oc3=O)c(=O)oc2c1
168 to 170	CCOC(=O)Nc1nc(N)c(C(N)=O)s1
-101	CC1CCCS1 (centres undefined)
245	COC(=O)CCc1cc2c(cc1NC(C)=O)NC(=O)CC2
175	Cc1cc([N+](=O)[O-])cc(Cl)c1N
157	Cc1cccc(C(N)=O)c1C
-55	CCc1cccc(Cl)c1
65	CC(C)OC(=O)c1cc(C(=O)OC(C)C)cc([N+](=O)[O-])c1
155 to 159	O=C1C=CC(=O)N1c1ccc(Cc2ccc(N3C(=O)C=CC3=O)cc2)cc1
145	Nc1ccc(CC(=O)c2ccc(N)cc2)cc1
145 to 147	CC1(C)CC(=O)c2cc(-c3ccccc3)n(-c3cccc(C(F)(F)F)c3)c2C1
90 to 91	O=S(=O)(c1ccccc1)n1cc(CO)c2ccccc21
55	CC(C)COC(=O)c1ccc(C(=O)OCC(C)C)cc1
88	OC1COC2C(O)COC12 (centres undefined)
8 to 10	Cc1cc(C)cc(C=O)c1
187	O=C(O)C[C@H](NC(=O)OCC1c2ccccc2-c2ccccc21)c1ccccc1
-48	NC1CCCCCCC1
35	COc1cc(Br)cc(F)c1F
80 to 82	Cc1cc(Oc2ncccc2[N+](=O)[O-])cc(C)c1Cl
264 to 267	CCCc1c(O)ccc2c(=O)cc(C(=O)O)oc12

melting point [°C]	Compound
55.5 to 74	CCCCCCCCCCOc1ccc(/N=N/c2ccc(CCCC)cc2)cc1
134 to 139	CCOC(=O)N1CCC2(CC1)C(=O)N(CO)CN2c1ccccc1
132 to 135	CCN(CC)c1cc(Cl)c2nonc2c1[N+](=O)[O-]
78	COc1ccccc1NC(=O)c1cnc(C(C)(C)C)cn1
144	O=C(O)CP(=O)(O)O
78	CC(=O)c1sc2ccccc2c1C
220	COc1cc2c3c(c4ccc(OC)c(OC)c4c2cc1OC)CN1CCCC1C3 (centres undefined)
148 to 149	Nc1n[nH]c(N)c1Cc1ccccc1
54 to 60	O=C1OC(=O)C2CC12 (centres undefined)
116	N#C/C(=C/c1ccccc1)c1ccc(Cl)cc1
294	O=C1c2cc([N+](=O)[O-])ccc2-c2ccc([N+](=O)[O-])cc21
23 to 25	COc1ccc(C(=O)N=C=S)cc1
206	NS(=O)(=O)c1ccc(N2C(=O)CC(c3ccccc3)C2=O)c(Cl)c1 (centres undefined)
65.5	CC(C)OC(=O)C1(S(=O)(=O)c2ccc([N+](=O)[O-])cc2)CCC1
121	COc1cc(C(=O)c2cccc(C)c2)c([N+](=O)[O-])cc1OC
82	O=C1Nc2ccccc2/C1=C/c1ccccc1[N+](=O)[O-]
22 to 23	CCCCCCCCC=CCCCCCCCC(=O)OC(=O)CCCCCCCC=CCCCCCCCC
210	O=C(O)c1ccc(Cl)cc1O
20	O=Cc1cccc(Br)c1
108 to 110	O=C(O)CCc1cc(Br)c(O)c(Br)c1
148	O=Cc1ccc(-c2ccc(C=O)cc2)cc1
87	O=C(O)c1ccccc1-c1ccco1

melting point [°C]	Compound
202 to 206	O=C(O)c1cccc(-c2cccnc2)c1
217 to 220	O=C(O)c1ccc(Sc2ccc(Cl)cc2)c([N+](=O)[O-])c1
185 to 188	Oc1cccnc1Br
57	Cc1cc([N+](=O)[O-])cnc1Br
206	CC1C(=O)CCCC1=O
185	COc1ccccc1/C=C/C(=O)O
159 to 161	Nc1n[nH]c(N)c1Cc1ccc(F)cc1
105 to 107	CCCNC(=O)C(C(F)(F)F)C(F)(F)F
156 to 160	O=C(O)CN(CC(=O)O)c1ccccc1
63	Oc1c(F)cccc1Cl
211	O=C(C1=NN(c2ccccc2)C2C(=O)N(c3ccc(F)cc3)C(=O)C12)c1ccccc1 (centres undefined)
122	CC(C)=CCCC(C)C1CCC2C3CC=C4CC(O)CCC4(C)C3CCC12C (centres undefined)
52 to 55	CN(N)c1ccc(C(F)(F)F)cn1
31	Nc1cc(F)ccc1C(F)(F)F
121 to 124	O=C(Oc1c(F)c(F)c(F)c(F)c1F)c1cncnc1
-23.5	C/C=C(\C)c1ccccc1
185 to 189	Oc1ccc(/C=C/c2ccccc2)cc1
106	O=[N+]([O-])c1ccc(Oc2c(Cl)cc(Cl)cc2Cl)cc1
200	Brc1nc2ccccc2[nH]1
60	COC(=O)c1c(C)c(Br)c(OC)c(Br)c1OC
100 to 102	O=C(O)Cc1ccccc1C(F)(F)F

More lines, now with the values behind:

Compound	melting point [°C]
CCOc1ccc(-c2nnc3n2NC(C=Cc2ccccc2)S3)cc1 (centres undefined)	226 to 228
c1ccc2cc(Nc3ccc4ccccc4c3)ccc2c1	172
CCN=C=S	-5.9
N#Cc1ncc(F)cc1F	32
CNC(=O)CSP(=O)(OC)OC	-28
COc1cccc(OCc2ccccc2Cl)c1C#N	152 to 154
CC(C(=O)O)c1ccc(C2CCCC(=NO)C2)cc1 (centres undefined)	178
CON=C(C(=O)NC1C(=O)N2C(C(=O)OCOC(=O)C(C)(C)C)=C(C=Cc3scnc3C)CSC12)c1csc(N)n1 (centres undefined)	128
CCCCCCOc1ccc(O)cc1	46
CC(=O)OC1CCC2(C)C(=CC(=O)C3C4CCC(=O)C4(C)CCC32)C1 (centres undefined)	182
CCC(=O)Nc1ccccc1	106
c1cc2occc2c(N2CCNCC2)n1	58 to 60
Nc1nc(-c2cccc3ccccc23)cs1	157
Cc1cc(Br)c(O)c(Br)c1	50
C=C1C(=O)OC2C1CCC(C)C1(O)C=CC(=O)C21C (centres undefined)	164
CC(C)(C(=O)O)n1nnc2ccccc21	182
CC(=O)c1csc([N+](=O)[O-])c1	59 to 61
CCC(O)c1cc(C)ccc1O (centres undefined)	143
Cn1nnc2c1ccc(=O)n2C1OC(CO)C(O)C1O (centres undefined)	211
Oc1ccc(Br)cc1C=NCCN=Cc1cc(Br)ccc1O	191 to 196
CC(=O)OOC(C)=O	30
CC(=O)c1cc(C(C)=O)c(N)cc1N	235

Compound	melting point [°C]
Nc1c(Br)cc(F)c(Cl)c1Br	98
O=C(NNc1ccccc1)C1CCCCC1	164
O=Cc1ccc(-c2ccc(Br)cc2)o1	150 to 155
FC(F)(F)c1cccc(-n2cc[nH]c2=S)c1	157 to 159
O=[N+]([O-])c1ccc(/C=C/C=C/C=C/c2ccc([N+](=O)[O-])cc2)cc1	240
O=C(O)C1(c2c(F)cccc2Cl)CCCCC1	128 to 134
CC(=O)Oc1c(-c2ccc(-c3[nH]c4cc([N+](=O)[O-])ccc4c3OC(C)=O)cc2)[nH]c2cc([N+](=O)[O-])ccc12	280
O=C1OC(c2ccccc2)=NC1=Cc1cc([N+](=O)[O-])ccc1O	231 to 232
CC(C)(C)CCl	-20
CSc1ccc(Oc2cccc(F)c2C#N)cc1	68 to 71
CC1CCCCC1NC(=O)Nc1ccccc1 (centres undefined)	136
Cc1c(Cc2c(C)n(C)n(-c3ccccc3)c2=O)c(=O)n(-c2ccccc2)n1C	155
COC(=O)C=Cc1ccc(C=CC(=O)OC)c(NC(C)=O)c1	168
O=c1c(I)cn(CC(O)CO)cc1I (centres undefined)	161
O=C(CO)c1ccc(Br)cc1	137 to 142
O=C1OC(c2ccc(Cl)cc2)=NC1=Cc1ccccc1	181 to 182
O=C(O)C(O)c1ccc(C(F)(F)F)cc1 (centres undefined)	130 to 134
C#CC1(O)CCC2(C)C(CCC3C2CCC2(C)C3CCC23OCCO3)C1 (centres undefined)	203 to 209
CC(=O)c1ccc(NC(=O)C(C(F)(F)F)(C(F)(F)F)C(F)(F)F)cc1	223 to 225
Nc1cc(C(=O)O)cc([N+](=O)[O-])c1	216
COP(=O)(OC)SCn1c(=O)oc2cc(Cl)cnc21	89
Cn1cnc(C#N)c1C#N	85

Compound	melting point [°C]
O=C(O)C1OC1C(=O)O (centres undefined)	148 to 149
N#Cc1ccc(CCl)cc1	79
Cc1cc([N+](=O)[O-])cc(C)c1O	164 to 169
O=S1(=O)Cc2ccccc2C1	151 to 152
CC(=O)OC(=CC=C(OC(C)=O)c1ccccc1)c1ccccc1	174 to 176
Clc1ccc(-c2ccc(Br)nc2)cn1	244
O=C(O)Cc1cc(F)ccc1F	125
CCC(=O)OC1CCC2C3CCC4=CC(=O)CCC4(C)C3CCC12C (centres undefined)	120
CCC(Oc1ccccc1)C(=O)O (centres undefined)	81
CN(CC(=O)O)C(=O)c1ccccc1	101 to 105
Cc1cc(Cl)c(N=C=O)cc1N=C=O	62
CC1CC(C)CC(C)C1 (centres undefined)	-49.7
COC(=O)[C@H]1C[C@]2(Sc3ccccc3)O[C@@]1(c1ccc(OC)cc1)c1c2cc(Cl)nc1Cl	118
Clc1ccc2ncccc2c1	43.8
CN(C)CCCN	-60
C1=CCc2ccccc2C1	25
CCOc1cc(NC(C)=O)ccc1C(=O)OC	148
c1ccc(SCCSc2ccccc2)cc1	69
CC1=C(c2ccccc2)C(=O)N(C(C)(C)c2cc(Cl)cc(Cl)c2)CO1	150
CC(=O)OC(CCC(=O)c1ccccc1)c1ccccc1 (centres undefined)	73
